{"source": "patent US20140213454A1", "about": "“METHODS TO INDUCE DROUGHT TOLERANCE IN CROPS” (Valent BioSciences Corporation, priority 2013, published 2014)", "key": {"[1]": {"system": "corn", "assay": "Replicated corn trial 2012, moderate drought (Example 1)", "type": "in vivo", "experimental": "A replicated corn silage study was conducted in 2012. Corn was planted on May 18, 2012, and treated with two rates of GA3 at either the V2 (June 2) or V5 (June 18) growth stage, each time at two rates of GA3. Grain yields were estimated from harvests of 20 feet of row and converted to bushels of grain per acre. There was 1.5 inches of rain in the two weeks before planting but no rain from May 10 until May 29, when there was 0.7 inch rain. During June there was 2.9 inches of rain spread over the month. There were only two rain events from July 1-25, each of less than 0.2 inches. On July 26th there was approximately 2 inches of rain. Rainfall in June, July and August was about one third below the 30-year average for the area and the corn was under moderate drought conditions. Crop moisture conditions in July were described as ‘excessively dry’ by the National Climate Data Center of NOAA."}, "[2]": {"system": "corn", "assay": "Replicated corn trial 2012, extreme and exceptional drought (Example 2)", "type": "in vivo", "conditions": "for Grain Yield: extreme and exceptional drought, untreated 88.45", "from_the_text": "In a replicated trial conducted in 2012, the corn crop experienced extreme and exceptional drought in July, as described by the National Climate Data Center. Corn was planted at the end of April and treated with GA3 at either the V2 or V5 growth stages. Thirty two days after application, the GA3-treated corn was approximately 10 inches taller than the untreated on average."}, "[3]": {"system": "hybrid corn", "assay": "Field trial 2012, time course of GA3 applications, hybrid corn (Example 3)", "type": "in vivo", "conditions": "5.3 grams GA3/acre, extreme and exceptional drought, untreated 116", "experimental": "In another field trial conducted in 2012 a time course of GA3 applications was performed. In this trial, hybrid corn was planted on April 24, 2012 at a density of 32,000 plants/acre. The plants were sprayed with GA3 at either the fifth leaf (V5) or tassel emergence (VT) on June 6 or July 7, respectively. This trial was subjected to extreme and exceptional drought in July during set and grain fill. As is shown in Table 3 below, the effect of the spray treatments of GA3 was dependent on the timing of the GA3 application."}, "[4]": {"system": "perennial ryegrass", "conditions": "Jiang and Fry 1998; cited from earlier work"}, "[5]": {"system": "corn", "conditions": "Robertson and Greenway 1973; cited from earlier work"}}}
{"smiles": "C=C1C[C@]23C[C@@]1(O)CC[C@H]2[C@@]12C=C[C@H](O)[C@@](C)(C(=O)O1)[C@H]2[C@@H]3C(=O)O", "note": "[GA3, gibberellic acid]", "values": [{"measurement": "Grain Yield", "setting": "[1]; 3.2 grams GA3/acre, application timing V2, untreated 124.0", "value": 141.2, "unit": "Bu/Acre"}, {"measurement": "Grain Yield", "setting": "[1]; 3.2 grams GA3/acre, application timing V5, untreated 124.0", "value": 143.0, "unit": "Bu/Acre"}, {"measurement": "Grain Yield", "setting": "[1]; 6.4 grams GA3/acre, application timing V2, untreated 124.0", "value": 141.1, "unit": "Bu/Acre"}, {"measurement": "Grain Yield", "setting": "[1]; 6.4 grams GA3/acre, application timing V5, untreated 124.0", "value": 156.1, "unit": "Bu/Acre"}, {"measurement": "Grain Yield", "setting": "[2]; 3.2 grams GA3/acre, application stage V2", "value": 119.70, "unit": "Bu/Acre"}, {"measurement": "Grain Yield", "setting": "[2]; 3.2 grams GA3/acre, application stage V5", "value": 155.65, "unit": "Bu/Acre"}, {"measurement": "Grain Yield", "setting": "[2]; 6.4 grams GA3/acre, application stage V2", "value": 119.83, "unit": "Bu/Acre"}, {"measurement": "Grain Yield", "setting": "[2]; 6.4 grams GA3/acre, application stage V5", "value": 121.60, "unit": "Bu/Acre"}, {"measurement": "Plant height, taller than the untreated on average", "setting": "[2]; thirty two days after application at V2 or V5", "value": "approximately 10 inches"}, {"measurement": "Grain Yield", "setting": "[3]; application stage V5", "value": 155, "unit": "Bu/Acre"}, {"measurement": "Grain Yield", "setting": "[3]; application stage VT (tassel emergence)", "value": 131, "unit": "Bu/Acre"}]}
{"smiles": "CCOC(=O)C1CC(=O)C(=C(O)C2CC2)C(=O)C1", "note": "(stereo not shown) [Trinexapac-ethyl, trinexapac-ethyl]", "values": [{"measurement": "Drought tolerance", "setting": "[4]", "value": "induce drought tolerance in perennial ryegrass"}]}
{"smiles": "C[N+](C)(C)CCCl", "note": "[chlormequat chloride]", "values": [{"measurement": "Drought resistance", "setting": "[5]", "value": "induce drought resistance in corn"}]}
